Test results as given in patent US6352988B2, “Indane or dihydroindole derivatives” (H. Lundbeck A/S, priority 1996, dated 2002).
Structures can show the parent of a compound that is named as a salt.

Experiments:
[1] = biological target: T1, dopamine D4 receptors in cloned human dopamine receptor subtype 4.2 membranes (Homo sapiens, UniProt P21917, DEL271-302); test: 3H-YM-09151-2 binding (affinity for dopamine D4 receptors); details: 3H-YM-09151-2, cloned human D4.2 membranes; for IC50: * means that the test result is preliminary, read-out: D4-bind. IC50
T1 sequence (P21917 with tags, fused parts or gaps DEL271-302): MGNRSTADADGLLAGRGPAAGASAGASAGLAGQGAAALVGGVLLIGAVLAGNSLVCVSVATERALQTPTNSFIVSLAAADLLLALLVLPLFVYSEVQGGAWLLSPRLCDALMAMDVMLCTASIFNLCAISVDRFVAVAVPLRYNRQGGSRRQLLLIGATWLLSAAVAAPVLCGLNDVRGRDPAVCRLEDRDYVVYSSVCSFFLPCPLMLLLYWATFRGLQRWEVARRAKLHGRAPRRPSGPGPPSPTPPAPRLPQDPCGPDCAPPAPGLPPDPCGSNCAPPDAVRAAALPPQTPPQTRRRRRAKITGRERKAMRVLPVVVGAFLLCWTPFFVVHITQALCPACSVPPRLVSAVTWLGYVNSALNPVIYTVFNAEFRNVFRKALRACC
Description: By this method the inhibition by drugs of the binding of the dopamine D4 antagonist ^3H-YM-09151-2 to dopamine D4 receptors in cloned human dopamine receptor subtype 4.2 membranes is determined in vitro. Accordingly, this is a test for affinity for dopamine D4 receptors. The test is performed using a preparation of cloned dopamine D4 cell membranes CRM-016®, Dupharma A/S, Denmark, in accordance with the product specifications.

SMILES | melting point | IC50 [1] | inhibition at 0.05 µM ([1]; at 50 nM, read-out: D4-bind. % inhibition of binding at 50 nM)
Clc1ccc2c(C3CCN(CCCCC4CCc5ccccc54)CC3)c[nH]c2c1 (stereo not drawn) (as salt: oxalate) [Compound 8f, 6-Chloro-3-[1-[4-(indan-1-yl)butan-1-yl)-piperidin-4-yl]-1H-indole] | 206 to 208 °C | – | –
CC(C)Oc1cccc2c1CC(CN1CCC(c3c[nH]c4ccc(F)cc34)CC1)C2 (stereo not drawn) (as salt: oxalate) | 181 to 189 °C | – | –
Clc1ccc2c(C3=CCN(CC4Cc5ccccc5C4)CC3)c[nH]c2c1Cl [Compound 11d, 6,7-Dichloro-3-[1-(indan-2-yl)methyl-1,2,3,6-tetrahydropyridin-4-yl]-1H-indole] | 151 to 152 °C | 27 nM | –
CC(=O)Nc1ccc2c(c1)CC(CN1CC=C(c3c[nH]c4cc(Cl)ccc34)CC1)C2 (stereo not drawn) (as salt: oxalate) | 201 to 203 °C | – | –
Fc1ccc2[nH]cc(C3=CCN(CCC4CCc5ccccc54)CC3)c2c1 (stereo not drawn) [Compound 8b, 5-Fluoro-3-[1-[2-(indan-1-yl)ethyl]-1,2,3,6-tetrahydropyridin-4-yl]-1H-indole] | 172 to 176 °C | 2.8 nM | –
Clc1ccc2c(C3=CCN(CCC4CCc5ccccc54)CC3)c[nH]c2c1 (stereo not drawn) [Compound 8a, 6-Chloro-3-[1-[2-(indan-1-yl)ethyl]-1,2,3,6-tetrahydropyridine-4-yl]-1H-indole] | 181 to 183 °C | 3.5 nM | –
c1ccc2c(c1)CC(CCN1CCC(n3ccc4ccccc43)CC1)C2 [Compound 29b, 1-[1-[2-(Indan-2-yl)ethyl]piperidin-4-yl]-1H-indole] | 80 to 81 °C | 2.2 nM | –
CC(=O)Nc1ccc2c(c1)CCC2CN1CC=C(c2c[nH]c3cc(Cl)ccc23)CC1 (stereo not drawn) (as salt: fumarate) [Compound 6d, 6-Chloro-3-[1-(5-acetylamino-1-indanylmethyl)-1,2,3,6-tetrahydropyridin-4-yl]-1H-indole] | 241 to 242 °C | – | –
CC(=O)Nc1cccc2c1CCC2CN1CC=C(c2c[nH]c3cc(Cl)ccc23)CC1 (stereo not drawn) [Compound 6c] | 189 to 190 °C | 12 nM | –
c1ccc2c(c1)CC(CN1CCC(c3c[nH]c4ccccc34)CC1)C2 [Compound 21b, 3-[1-(indan-2-ylmethyl)piperidin-4-yl]-1H-indole] | 146 to 147 °C | 2.1 nM | –
Clc1ccc2c(C3=CCN(CCCCC4Cc5ccccc5C4)CC3)c[nH]c2c1 [Compound 11i, 6-Chloro-3-[1-[4-(indan-2-yl)butan-1-yl]-1,2,3,6-tetrahydropyridin-4-yl]-1H-indole] | 211 to 214 °C | – | 37%
CC(=O)Nc1ccc2c(c1)C(CCN1CC=C(c3c[nH]c4cc(Cl)ccc34)CC1)CC2 (stereo not drawn) (as salt: oxalate) [Compound 18c] | 153 to 155 °C | – | –
Clc1ccc2c(C3=CCN(CCCC4Cc5ccccc5C4)CC3)c[nH]c2c1 [Compound 11h, 6-Chloro-3-[1-[3-(indan-2-yl)propan-1-yl]-1,2,3,6-tetrahydropyridin-4-yl]-1H-indole] | 176 to 177 °C | 24 nM | –
C1=C(c2cc3ccccc3[nH]2)CCN(CCC2Cc3ccccc3C2)C1 [Compound 28c, 2-[1-[2-(Indan-2-yl)ethyl]-1,2,3,6-tetrahydropyridin-4-yl]-1H-indole] | 175 to 176 °C | 13 nM | –
Clc1ccc2c(C3CCN(CCCCC4Cc5ccccc5C4)CC3)c[nH]c2c1 [Compound 21h, 6-Chloro-3-[1-[4-(indan-2-yl)butan-1-yl]piperidin-4-yl]-1H-indole] | 139 to 140 °C | 14 nM | –
Clc1ccc2c(C3=CCN(CCCCC4CCc5ccccc54)CC3)c[nH]c2c1 (stereo not drawn) (as salt: oxalate) [Compound 8h] | 191 to 192 °C | – | –
c1ccc2c(c1)CC(CCN1CCN(c3ccc4[nH]ccc4c3)CC1)C2 (as salt: hydrochloride) [Compound 25b, 5-[4-[2-(Indan-2-yl)ethyl]piperazin-1-yl]-1H-indole] | 251 to 253 °C | – | –
COc1cc2c(cc1OC)CC(CN1CCC(c3c[nH]c4cc(Cl)ccc34)CC1)C2 | 68 to 79 °C | – | –
CC(=O)Nc1ccc2c(c1)C(CCCCN1CC=C(c3c[nH]c4cc(Cl)ccc34)CC1)CC2 (stereo not drawn) (as salt: oxalate) [Compound 18e, 6-Chloro-3-[1-[4-(6-acetylaminoindan-1-yl)butan-1-yl]-1,2,3,6-tetrahydropyridin-4-yl]-1H-indole] | 125 to 128 °C | – | –

SMILES | melting point | IC50 [1] | inhibition at 0.05 µM ([1]; at 50 nM, read-out: D4-bind. % inhibition of binding at 50 nM)
Clc1ccc2c(C3CCN(CCC4Cc5ccccc5C4)CC3)c[nH]c2c1 [Compound 21f, 6-Chloro-3-[1-[2-(indan-2-yl)ethyl]piperidin-4-yl]-1H-indole] | 155 to 156 °C | 3.2 nM | –
Clc1cccc2c(C3=CCN(CC4Cc5ccccc5C4)CC3)c[nH]c12 (as salt: oxalate) [Compound 11c, 7-Chloro-3-[1-(indan-2-yl)methyl-1,2,3,6-tetrahydropyridin-4-yl]-1H-indole] | 135 to 136 °C | – | –
Clc1ccc2c(C3=CCN(CCC4Cc5ccccc5C4)CC3)c[nH]c2c1 [Compound 11g, 6-Chloro-3-[1-[2-(indan-2-yl)ethyl]-1,2,3,6-tetrahydropyridin-4-yl]-1H-indole] | 217 to 218 °C | 12 nM | –
CC(=O)Nc1ccc2c(c1)C(CCCN1CC=C(c3c[nH]c4cc(Cl)ccc34)CC1)CC2 (stereo not drawn) (as salt: oxalate) [Compound 18d, 6-Chloro-3-[1-[3-(6-acetylaminoindan-1-yl)propan-1-yl]-1,2,3,6-tetrahydropyridin-4-yl]-1H-indole] | 110 to 115 °C | – | –
CC(=O)N1CC(CCCN2CC=C(c3c[nH]c4cc(Cl)ccc34)CC2)c2ccccc21 (stereo not drawn) (as salt: oxalate) [Compound 20k, 3-[1-[3-(1-Acetyl-2,3-dihydro-1H-indol-3-yl)propyl]-1,2,3,6-tetrahydropyridin-4-yl]-6-chloro-1H-indole] | 112 to 115 °C | – | –
Clc1ccc2c(C3CCN(CCCC4Cc5ccccc5C4)CC3)c[nH]c2c1 [Compound 21g, 6Chloro-3-[1-[3-(indan-2-yl)propan-1-yl]piperidin-4-yl]-1H-indole] | 134 to 135 °C | 7.2 nM | –
CC(C)Oc1cccc2c1CC(CN1CCC(c3c[nH]c4cc(Cl)ccc34)CC1)C2 (stereo not drawn) (as salt: oxalate) | 119 to 126 °C | – | –
C1=C(c2c[nH]c3ccccc23)CCN(CC2Cc3ccccc3C2)C1 [Compound 11b, 3-[1-(Indan-2-yl)methyl-1,2,3,6-tetrahydropyridin-4-yl]-1H-indole] | 156 to 157 °C | 3 nM | –
Clc1ccc2c(C3CCN(CC4Cc5ccccc5C4)CC3)c[nH]c2c1Cl [Compound 21d, 6,7-Dichloro-3-[1-(indan-2-ylmethyl)piperidin-4-yl]-1H-indole] | 141 to 142 °C | 3.9 nM | –
C1=C(n2ccc3ccccc32)CCN(CCC2Cc3ccccc3C2)C1 (as salt: oxalate) [Compound 28b, 1-[1-[2-(Indan-2-yl)ethyl]-1,2,3,6-tetrahydropyridin-4-yl]-1H-indole] | 176 to 178 °C | – | –
C1=C(c2c[nH]c3cc4c(cc23)OCO4)CCN(CC2Cc3ccccc3C2)C1 [Compound 11e, 3-[1-(Indan-2-yl)methyl-1,2,3,6-tetrahydropyridin-4-yl]-5,6-methylenedioxy-1H-indole] | 192 to 193 °C | 16 nM | –
Clc1cccc2c(C3CCN(CC4Cc5ccccc5C4)CC3)c[nH]c12 (as salt: oxalate) [Compound 21c, 7-Chloro-3-[1-(indan-2-ylmethyl)piperidin-4-yl]-1H-indole] | 218 to 219 °C | – | –
Clc1ccc2c(C3CCN(CC4Cc5ccccc5C4)CC3)c[nH]c2c1 [Compound 21a, 6-Chloro-3-[1-(indan-2-ylmethyl)piperidin-4yl]-1H-indole] | – | 0.48 nM | –
c1ccc2c(c1)CC(CN1CCN(c3ccc4[nH]ccc4c3)CC1)C2 (as salt: hydrochloride) [Compound 11f, 5-[4-(Indan-2-yl)methylpiperazin-1-yl]-1H-indole] | 263 to 265 °C | – | –
CC(=O)Nc1ccc2c(c1)CC(CN1CCC(c3c[nH]c4cc(Cl)ccc34)CC1)C2 (stereo not drawn) | 151 to 152 °C | – | –
Clc1cccc2c(C3=CCN(CC4Cc5ccccc5C4)CC3)c[nH]c12 [Compound 11c, 7-Chloro-3-[1-(indan-2-yl)methyl-1,2,3,6-tetrahydropyridin-4-yl]-1H-indole] | – | 3.8 nM | –
CC(=O)N1CC(CCN2CC=C(c3c[nH]c4c(Cl)cccc34)CC2)c2ccccc21 (stereo not drawn) [Compound 20f, 3-[1-[2-(1-Acetyl-2,3-dihydro-1H-indol-3-yl)ethyl]-1,2,3,6-tetrahydropyridin-4-yl]-7-chloro-1H-indole] | – | 3.2 nM | –
Fc1ccc2[nH]cc(C3CCN(CCCCC4CCc5ccccc54)CC3)c2c1 (stereo not drawn) [Compound 8e, 5-fluoro-3-[1-[4-(indan-1-yl)butan-1-yl]-piperidin-4-yl]-1H-indole] | – | 8.3 nM | –
CC(=O)N1CC(CCN2CCC(c3c[nH]c4cc(Cl)ccc34)CC2)c2ccccc21 (stereo not drawn) [Compound 20b, 3-[1-[2-(1-Acetyl-2,3-dihydro-1H-indol-3-yl)ethyl]piperidin-4-yl]-6-chloro-1H-indole] | – | 6.7 nM | –
